Data as given in patent US20260263340A1, “Cosmetic Products and Cleaning Products Stabilized Against Microbial Attack” (Thor GmbH, priority 2023, published 2026).
Where a name gives a salt, the structure may show the parent alone.

What was measured:
[1] = test system: bacteria mixture 3; assay: Repeated-inoculation microbiological stress test of body lotion, bacteria mixture 3; assay type: cell-based, Nesterenkonia spec.; set-up: key to Bacterial growth after inoculation: 0: No growth; Minimal growth, 1 to 10 colonies visible over the entire streak; 2: Light growth, maximum 100 colonies; Moderate growth, maximum 300 to 400 colonies; Uniform growth, >400 colonies, single colonies still clearly recognizable; 5: Heavy growth, too many colonies to count, but no growth over the entire streak; 6: Full growth, barely any single colonies still apparent, growth over the entire streak; conditions: for Bacterial growth after inoculation: Body lotion, 6 d
From the text: (§1) The tested cleaning composition was an all-purpose cleaner without preservatives and having a pH of 7.7, the skin lotion was a body lotion without preservatives and having a pH of 7.1, and the shampoo was a hair shampoo without preservatives and having a pH of 6.9.
(§2) The cleaning composition was admixed with particular concentrations of guanidine carbonate and guanidine hydrochloride and homogenized. The body lotion and the hair shampoo were each admixed and homogenized with guanidine hydrochloride and with octane-1,2-diol alone or in combination.
(§3) The batches of the products thus obtained were inoculated repeatedly at particular intervals with bacteria mixtures or yeast mixtures that are used as standard for microbiological stress tests of industrial products or cosmetic products (bacteria mixture 1 and 2, yeast mixture 1 and 2).
(§4) The inoculum was added to the respective sample in each inoculation at 2% (v/w) as a fresh cell suspension in a physiological saline solution (0.9% NaCl). The cell count of the inoculum added was 10^8-10^9/ml for the bacteria mixtures, 10^7-10^8/ml for the yeast mixtures, consisting in equal parts of the individual bacteria strains or yeast strains.
The cell suspension of the bacteria mixtures was produced by growing the individual bacteria at 30° C. for 24 h in liquid culture on a shaker. The medium used to grow the bacteria from bacteria mixtures 1 and 2 was Müller-Hinton liquid medium. The bacteria from bacteria mixture 3 were grown in Müller-Hinton liquid medium that had been adjusted to pH 9.5 to 9.7 with an alkaline buffer solution beforehand. After growing, the individual liquid cultures were centrifuged, and the cells were resuspended in physiological saline solution. In order to adjust the mixtures to a total cell count of 10^8 to 10^9/ml, the individual bacteria suspensions, if necessary, were diluted accordingly before being combined with saline solution. The cell count of the inoculum suspensions was determined in each case by chamber counting.
(§5) In the examples, the samples were inoculated three times at weekly intervals with the respective cell suspensions (2% v/w) and the evolution of the bacteria or yeasts was followed by a semiquantitative evaluation method. After each inoculation, microbial infestation in the samples was evaluated in each case after incubation at 30° C. for 6 to 7 days. For this purpose, an aliquot was taken from each sample after homogenization using a sterile plastic inoculation loop (10 μl) and streaked evenly on agar plates (bacteria mixture 1 and 2 on tryptic soy agar, bacteria mixture 3 on DSMZ 31 alkaline nutrient agar, Sabouraud glucose-agar in the case of yeasts). The streaked agar plates were then incubated at 30° C. for 48 hours (bacteria mixture 1 and 2) or 5 to 7 days (bacteria mixture 3), or at 25° C. for 72 hours (yeast mixtures). After incubation, the bacteria colonies or yeast colonies that have grown on the agar plates were visually evaluated and quantified according to the following scheme:
Inoculation 2% (w/v) with bacteria mixture 3, cell count 10^8/ml

[2] = test system: yeast mixture 1; assay: Repeated-inoculation microbiological stress test of all-purpose cleaner, yeast mixture 1; assay type: cell-based; set-up: key to Yeast growth after inoculation: 0: No growth; Minimal growth, 1 to 10 colonies visible over the entire streak; 2: Light growth, maximum 100 colonies; Moderate growth, maximum 300 to 400 colonies; Uniform growth, >400 colonies, single colonies still clearly recognizable; 5: Heavy growth, too many colonies to count, but no growth over the entire streak; 6: Full growth, barely any single colonies still apparent, growth over the entire streak; conditions: for Yeast growth after inoculation: All-purpose cleaner, 6 d
From the text: as §1, §2, §3, §4
(§6) The cell suspension of the yeast mixtures was produced by growing the yeast strains on Sabouraud glucose-agar at 25° C. for 48 hours and washing down the cell lawn in each case with physiological saline solution (0.9% NaCl). Further steps for establishment of a cell count of the inoculum suspension of 10^7/ml to 10^8/ml were effected analogously to the production of the bacteria suspensions.
as §5
Inoculation 2% (w/v) with yeast mixture 1, cell count 10^8/ml

[3] = test system: yeast mixture 2; assay: Repeated-inoculation microbiological stress test of shampoo, yeast mixture 2; assay type: cell-based, Candida albicans, Candida parapsilosis; set-up: key to Yeast growth after inoculation: 0: No growth; Minimal growth, 1 to 10 colonies visible over the entire streak; 2: Light growth, maximum 100 colonies; Moderate growth, maximum 300 to 400 colonies; Uniform growth, >400 colonies, single colonies still clearly recognizable; 5: Heavy growth, too many colonies to count, but no growth over the entire streak; 6: Full growth, barely any single colonies still apparent, growth over the entire streak; conditions: for Yeast growth after inoculation: Shampoo, 6 d
From the text: as §1, §2, §3, §4, §6, §5
(§7) Inoculation 2% (w/v) with yeast mixture 2, cell count 10^7/ml

[4] = test system: yeast mixture 2; assay: Repeated-inoculation microbiological stress test of body lotion, yeast mixture 2; assay type: cell-based, Candida albicans, Candida parapsilosis; set-up: key to Yeast growth after inoculation: 0: No growth; Minimal growth, 1 to 10 colonies visible over the entire streak; 2: Light growth, maximum 100 colonies; Moderate growth, maximum 300 to 400 colonies; Uniform growth, >400 colonies, single colonies still clearly recognizable; 5: Heavy growth, too many colonies to count, but no growth over the entire streak; 6: Full growth, barely any single colonies still apparent, growth over the entire streak; conditions: for Yeast growth after inoculation: Body lotion, 6 d
From the text: as §1, §2, §3, §4, §6, §5, §7

[5] = +10000 ppm guanidine hydrochloride (6180 ppm guanidine) pH 6.8, 1. inoculation
[6] = +10000 ppm guanidine hydrochloride (6180 ppm guanidine) pH 6.8, 2. inoculation
[7] = +10000 ppm guanidine hydrochloride (6180 ppm guanidine) pH 6.8, 3. inoculation
[8] = +2500 ppm octanediol pH 7.0, 1. inoculation
[9] = +2500 ppm octanediol pH 7.0, 2. inoculation
[10] = +2500 ppm octanediol pH 7.0, 3. inoculation
[11] = +5000 ppm octanediol pH 7.0, 1. inoculation
[12] = +5000 ppm octanediol pH 7.0, 2. inoculation
[13] = +5000 ppm octanediol pH 7.0, 3. inoculation

SMILES: N=C(N)N [guanidine hydrochloride]
- Bacterial growth after inoculation [1, 5]: 6
- Bacterial growth after inoculation [1, 6]: 6
- Bacterial growth after inoculation [1, 7]: 6
- stability of the body lotion to microbial infestation by bacteria ([1]; addition of 3035 ppm of guanidine in the form of guanidine hydrochloride at pH 7.0): distinct improvement in stability
- Yeast growth after inoculation ([2]; +1000 ppm guanidine hydrochloride (618 ppm guanidine) pH 7.7, 1. inoculation): 5
- Yeast growth after inoculation ([2]; +1000 ppm guanidine hydrochloride (618 ppm guanidine) pH 7.7, 2. inoculation): 6
- Yeast growth after inoculation ([2]; +1000 ppm guanidine hydrochloride (618 ppm guanidine) pH 7.7, 3. inoculation): 6
- Yeast growth after inoculation ([2]; +2500 ppm guanidine hydrochloride (1545 ppm guanidine) pH 7.7, 1. inoculation): 1 (Minimal growth, 1 to 10 colonies visible over the entire streak)
- Yeast growth after inoculation ([2]; +2500 ppm guanidine hydrochloride (1545 ppm guanidine) pH 7.7, 2. inoculation): 1 (Minimal growth, 1 to 10 colonies visible over the entire streak)
- Yeast growth after inoculation ([2]; +2500 ppm guanidine hydrochloride (1545 ppm guanidine) pH 7.7, 3. inoculation): 1 (Minimal growth, 1 to 10 colonies visible over the entire streak)
- Yeast growth after inoculation ([2]; +5000 ppm guanidine hydrochloride (3090 ppm guanidine) pH 7.6, 1. inoculation): 0
- Yeast growth after inoculation ([2]; +5000 ppm guanidine hydrochloride (3090 ppm guanidine) pH 7.6, 2. inoculation): 0
- Yeast growth after inoculation ([2]; +5000 ppm guanidine hydrochloride (3090 ppm guanidine) pH 7.6, 3. inoculation): 1 (Minimal growth, 1 to 10 colonies visible over the entire streak)
- stability of the all-purpose cleaner to microbial infestation by yeasts ([2]; addition of 1516 ppm of guanidine in the form of guanidine hydrochloride at pH 7.7): distinct improvement in stability
- Yeast growth after inoculation ([3]; +10000 ppm guanidine hydrochloride (6070 ppm guanidine) pH 6.8, 1. inoculation): 4 (Uniform growth, >400 colonies, single colonies still clearly recognizable)
- Yeast growth after inoculation ([3]; +10000 ppm guanidine hydrochloride (6070 ppm guanidine) pH 6.8, 2. inoculation): 6
- Yeast growth after inoculation ([3]; +10000 ppm guanidine hydrochloride (6070 ppm guanidine) pH 6.8, 3. inoculation): 6
- stability of the shampoo to microbial infestation by yeasts ([3]; table 6, addition of 4553 ppm of guanidine in the form of guanidine hydrochloride at pH 6.9): distinct improvement in stability
- Yeast growth after inoculation [4, 5]: 5
- Yeast growth after inoculation [4, 6]: 6
- Yeast growth after inoculation [4, 7]: 6
- stability of the body lotion to microbial infestation by yeasts ([4]; addition of 4553 ppm of guanidine in the form of guanidine hydrochloride at pH 6.9): distinct improvement in stability

SMILES: CCCCCCC(O)CO (stereo not shown) [octanediol, octane-1,2-diol]
- Bacterial growth after inoculation [1, 8]: 4 (Uniform growth, >400 colonies, single colonies still clearly recognizable)
- Bacterial growth after inoculation [1, 9]: 6
- Bacterial growth after inoculation [1, 10]: 6
- Bacterial growth after inoculation [1, 11]: 1 (Minimal growth, 1 to 10 colonies visible over the entire streak)
- Bacterial growth after inoculation [1, 12]: 3 (Moderate growth, maximum 300 to 400 colonies)
- Bacterial growth after inoculation [1, 13]: 3 (Moderate growth, maximum 300 to 400 colonies)
- Yeast growth after inoculation ([3]; +2500 ppm octanediol pH 6.9, 1. inoculation): 4 (Uniform growth, >400 colonies, single colonies still clearly recognizable)
- Yeast growth after inoculation ([3]; +2500 ppm octanediol pH 6.9, 2. inoculation): 5
- Yeast growth after inoculation ([3]; +2500 ppm octanediol pH 6.9, 3. inoculation): 6
- Yeast growth after inoculation ([3]; +5000 ppm octanediol pH 6.9, 1. inoculation): 1 (Minimal growth, 1 to 10 colonies visible over the entire streak)
- Yeast growth after inoculation ([3]; +5000 ppm octanediol pH 6.9, 2. inoculation): 2 (Light growth, maximum 100 colonies)
- Yeast growth after inoculation ([3]; +5000 ppm octanediol pH 6.9, 3. inoculation): 2 (Light growth, maximum 100 colonies)
- Yeast growth after inoculation [4, 8]: 5
- Yeast growth after inoculation [4, 9]: 6
- Yeast growth after inoculation [4, 10]: 6
- Yeast growth after inoculation [4, 11]: 3 (Moderate growth, maximum 300 to 400 colonies)
- Yeast growth after inoculation [4, 12]: 3 (Moderate growth, maximum 300 to 400 colonies)
- Yeast growth after inoculation [4, 13]: 2 (Light growth, maximum 100 colonies)
